From patent US12649748B2, “Wee1 inhibitor and use thereof” (JIANGSU TASLY DIYI PHARMACEUTICAL CO., LTD., priority 2021, dated 2026)

Experiments:
Assay type in all cases: in vitro ADME
[1] = Metabolic stability of liver microsomes in vitro (mouse); details: read-out: Mouse T1/2/min
Protocol: Microsomes were taken out from the −80° C. refrigerator, rapidly melted in a 37° C. water bath and placed on ice until ready to use. The test article was diluted with DMSO to prepare a 10 mM stock solution, and then diluted with acetonitrile to a 0.5 mM secondary stock solution. The microsomes were diluted to 0.75 mg/ml using Buffer C; the secondary stock solution was then added to a final concentration of 1.5 μM of compound as working solution, based on n=2, 5 time points, 350 μL of each compound was prepared and placed on ice prior to use. NADPH was diluted with Buffer C to a working solution of 6 mM for the starter solution. An acetonitrile solution containing an internal standard was prepared as the precipitant, and Verapamil-HCl was chosen as the internal standard at a concentration of 4 ng/ml.
A round-bottom well plate was taken, noted as the reaction plate, and the prepared working solution for each compound was dispensed into the well plate according to the number of replicates and time points (0 h samples are also added to the reaction plate), 30 μL/well; the plate was incubated at 37° C. for 10 min. A separate plate with pointed bottom wells, noted as a precipitation plate, was added with 135 μL precipitant per well; 0 h samples were transferred to the plate after 10 min incubation and 15 μL of starter solution was added; the plate was placed on ice before centrifugation.
The diluted starter solution was added in sufficient quantity to the dispensing plate to facilitate the multichannel pipette aspiration operation.
The reaction was carried out on a warm incubation shaker and 15 μL of starter solution/sample is added to the plate using a multichannel pipette. The reaction was mixed with a slight shake to initiate the reaction, which was accurately timed and recorded using a timer;
After the reaction time had elapsed, all the solution in the plate was aspirated using the multichannel pipette and added to the precipitation plate to terminate the reaction at that point in time. After all reactions had been terminated, the plates were shaken for ten minutes on a plate shaker at 600 rpm to precipitate the protein. The plate was centrifuged at 4° C. for 15 minutes at maximum rpm. 80 μL of supernatant was taken, 320 μL of pure water was added and mixed for LC-MS analysis.

[2] = Membrane permeability study (Caco-2); details: human; for Papp A→B at 90 min, 10 µM / Papp B→A at 90 min, 10 µM: pH 7.4, Caco-2, 10 μM; for Papp A→B at 90 min, 10 µM: A to B; for Papp B→A at 90 min, 10 µM: B to A; for efflux ratio at 90 min, 10 µM: Caco-2, pH 7.4, read-out: Efflux Ration
Protocol: Caco-2 cells were purchased from the […] (Rockville, MD). The cell culture medium was modified Eagle's medium (MEM) containing 10% inactivated fetal bovine serum and 1% non-essential amino acids. Cells were inoculated on polycarbonate filter membranes (Cat no. 3396) and incubated at 37° C. in a 5% CO2 incubator.
The cells were incubated for 21-28 days after inoculation for transport experiments and the apparent permeability (Papp) of Lucifer Yellow was used to characterize and verify the compactness of the cell monolayer. A stock solution of 10 mM was prepared by dissolving the compound in DMSO and diluted using Hanks Balanced Salt Solution (HBSS, Invitrogen, Cat #14025-092) containing 25 mM HEPES (pH 7.4) to obtain the working solution. A 10 μM working solution of the compound to be tested was added to the apical side and basolateral side of Caco-2 and incubated at 37° C. for 90 min. After the incubation, dilute the samples on the apical side and basolateral side, and the concentrations of compounds on the apical and basolateral sides were detected by LC-MS/MS, and the concentrations of the compounds were quantified by standard curve.

CYP2D6 = CYP2D6 (Homo sapiens, UniProt P10635); test: Inhibition of cytochrome P450, CYP2D6; details: CYP2D6 enzyme, pH 7.4, probe EOMCC, read-out: CYP inhibition/% 2D6; for inhibition at 30 min, 1 µM: compound concentration 1 μM; for inhibition at 30 min, 10 µM: compound concentration 10 μM
CYP2D6, sequence (P10635 whole entry, canonical isoform): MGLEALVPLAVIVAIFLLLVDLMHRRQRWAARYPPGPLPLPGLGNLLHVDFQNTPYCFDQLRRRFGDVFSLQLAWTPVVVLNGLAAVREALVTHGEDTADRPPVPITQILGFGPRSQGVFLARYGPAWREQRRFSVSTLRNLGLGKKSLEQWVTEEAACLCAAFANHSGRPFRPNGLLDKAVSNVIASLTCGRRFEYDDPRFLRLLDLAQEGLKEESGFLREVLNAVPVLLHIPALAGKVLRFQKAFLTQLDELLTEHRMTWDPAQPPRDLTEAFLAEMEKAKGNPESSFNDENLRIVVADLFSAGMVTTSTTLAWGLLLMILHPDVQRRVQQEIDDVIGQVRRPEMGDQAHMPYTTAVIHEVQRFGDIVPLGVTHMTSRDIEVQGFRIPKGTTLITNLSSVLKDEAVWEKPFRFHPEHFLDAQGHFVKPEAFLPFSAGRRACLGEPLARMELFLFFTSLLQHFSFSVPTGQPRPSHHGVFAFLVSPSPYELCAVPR
Protocol: (§1) Enzymatic experiments were performed to quantify the inhibition of CYP450 enzyme activity of each isoform of CYP450 by small molecule inhibitors through fluorescence generated by the oxidation of the substrate by cytochrome P450. […] The Solution B composition used for the experiment was: 40 U/mL G6PDH (Sigma-aldrich, Cat #G6378). The substrate mix was 0.05× Solution A, 0.01× Solution B, 50 mM Potassium Phosphate, 0.01 mM BOMCC/0.01 mM EOMCC/0.001 mM DBOMF. […] The data were analyzed and processed using GraphPad Prism 6 software to obtain IC50 values.

CYP1A2 = target: T1, CYP1A2 (Homo sapiens, UniProt P05177); test: Inhibition of cytochrome P450, CYP1A2; details: CYP1A2 enzyme, pH 7.4, probe EOMCC, read-out: CYP inhibition/% 1A2; for inhibition at 30 min, 1 µM: compound concentration 1 μM; for inhibition at 30 min, 10 µM: compound concentration 10 μM
T1 sequence (P05177 1-516): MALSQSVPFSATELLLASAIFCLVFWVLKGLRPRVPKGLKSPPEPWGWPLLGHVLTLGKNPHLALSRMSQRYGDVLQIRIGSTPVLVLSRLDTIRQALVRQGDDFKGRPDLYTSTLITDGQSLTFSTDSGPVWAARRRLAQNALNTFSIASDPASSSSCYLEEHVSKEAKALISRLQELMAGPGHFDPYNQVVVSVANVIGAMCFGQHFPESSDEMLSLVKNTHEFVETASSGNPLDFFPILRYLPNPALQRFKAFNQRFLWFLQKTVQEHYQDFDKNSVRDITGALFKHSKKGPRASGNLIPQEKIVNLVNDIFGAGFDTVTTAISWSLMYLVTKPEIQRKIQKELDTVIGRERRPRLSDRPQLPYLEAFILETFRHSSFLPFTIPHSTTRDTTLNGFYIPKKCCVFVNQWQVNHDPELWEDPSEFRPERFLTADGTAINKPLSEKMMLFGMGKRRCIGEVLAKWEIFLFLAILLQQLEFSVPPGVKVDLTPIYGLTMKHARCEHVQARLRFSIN
Protocol: as §1

half-life at 1 µM [1]	Papp A→B at 90 min, 10 µM [2]	Papp B→A at 90 min, 10 µM [2]	inhibition at 30 min, 1 µM (CYP2D6)	inhibition at 30 min, 10 µM (CYP2D6)	inhibition at 30 min, 1 µM (CYP1A2)	inhibition at 30 min, 10 µM (CYP1A2)	efflux ratio at 90 min, 10 µM [2]	SMILES
30.1 min	14.5 ×10⁻⁶ cm/s	35.3 ×10⁻⁶ cm/s						C=CCn1c(=O)c2cnc(Nc3ccc(N4CCN(C)CC4)cc3)nc2n1-c1cccc(C(C)(C)O)n1 [AZD-1775, reference compound]
15.6 min			0.3%	3.1%	13.5%	14.2%		CN1CCN(c2ccc(Nc3ncc4cnn(-c5cccc(C(C)(C)O)n5)c4n3)cc2)CC1 [Compound 2]
			-7.6%	-19.4%	15.5%	23.3%		CS(C)(=O)=Nc1cccc(-n2ncc3cnc(Nc4ccc(N5CCOCC5)cc4)nc32)n1 [Compound 6]
67.3 min	5.86 ×10⁻⁶ cm/s	20.8 ×10⁻⁶ cm/s					3.54	Cc1cc(Nc2ncc3cnn(-c4cccc(N=S(C)(C)=O)n4)c3n2)ccc1N1CCC(N(C)C)CC1 [Compound 14]
8.9 min	8.07 ×10⁻⁶ cm/s	20.3 ×10⁻⁶ cm/s					2.51	Cc1cc(Nc2ncc3cnn(-c4cccc(N=S(C)(C)=O)n4)c3n2)ccc1N1CCN(C)CC1 [Compound 16]

SMILES	half-life at 1 µM [1]	Papp A→B at 90 min, 10 µM [2]	Papp B→A at 90 min, 10 µM [2]	inhibition at 30 min, 1 µM (CYP2D6)	inhibition at 30 min, 10 µM (CYP2D6)	inhibition at 30 min, 1 µM (CYP1A2)	inhibition at 30 min, 10 µM (CYP1A2)	efflux ratio at 90 min, 10 µM [2]
CN1CCN(c2ccc(Nc3ncc4cnn(-c5cccc(N=S(C)(C)=O)n5)c4n3)cc2)CC1 [Compound 1]	60.3 min	8.93 ×10⁻⁶ cm/s	41.7 ×10⁻⁶ cm/s	2.8%	2%	18.4%	16.3%	4.67
